The source made the active and inactive calls.
Experiments:
[1] = tested on: Vero; test: cells; assay type: functional, cell-based; conditions: Chlorocebus sabaeus
[2] = tested on: Vero; test: cells; assay type: functional; conditions: Chlorocebus sabaeus
[3] = IGROV1 cell killing – plate reader, dry powder samples, PAX8 inhibitor project, dose response (AID 743043); assay type: functional, cell-based; conditions: IGROV-1
[4] = molecular target: Paired box protein Pax-8 (Homo sapiens, UniProt Q06710); test: PAX8 transcriptional activity inhibition in RMG-I – RMG-I cells, luciferase, cherry-pick, dose response (AID 687027); assay type: functional, cell-based;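 note: luciferase reporter driven by Pax8 target thyroperoxidase promoter measured by SteadyGlo luminescence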
[5] = OVCAR8 cell viability loss – plate reader, dry powder samples, PAX8 project, dose response (AID 743197); assay type: functional, cell-based; conditions: OVCAR-8
[6] = OVCAR-3 cell viability loss – plate reader, dry powder samples, PAX8 inhibitor project, dose response (AID 743044); assay type: functional, cell-based
[7] = molecular target: Mitogen-activated protein kinase 10 (Homo sapiens, UniProt P53779); test: Dose response biochemical screening assay for inhibitors of c-Jun N-Terminal Kinase 3 (JNK3). [Related pubchem assays: 746 ]
[8] = molecular target: T1, Short transient receptor potential channel 4 (Mus musculus, UniProt Q9QUQ5); test: block of DAMGO-driven TRPC4 calcium entry – cell-based, HEK293 TRPC4/mu-opioid, Fluo-4 calcium, dose response (AID 434942); assay type: functional;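 note: potency of inhibitors blocking the TRPC4 calcium response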
T1 sequence (Q9QUQ5 whole entry): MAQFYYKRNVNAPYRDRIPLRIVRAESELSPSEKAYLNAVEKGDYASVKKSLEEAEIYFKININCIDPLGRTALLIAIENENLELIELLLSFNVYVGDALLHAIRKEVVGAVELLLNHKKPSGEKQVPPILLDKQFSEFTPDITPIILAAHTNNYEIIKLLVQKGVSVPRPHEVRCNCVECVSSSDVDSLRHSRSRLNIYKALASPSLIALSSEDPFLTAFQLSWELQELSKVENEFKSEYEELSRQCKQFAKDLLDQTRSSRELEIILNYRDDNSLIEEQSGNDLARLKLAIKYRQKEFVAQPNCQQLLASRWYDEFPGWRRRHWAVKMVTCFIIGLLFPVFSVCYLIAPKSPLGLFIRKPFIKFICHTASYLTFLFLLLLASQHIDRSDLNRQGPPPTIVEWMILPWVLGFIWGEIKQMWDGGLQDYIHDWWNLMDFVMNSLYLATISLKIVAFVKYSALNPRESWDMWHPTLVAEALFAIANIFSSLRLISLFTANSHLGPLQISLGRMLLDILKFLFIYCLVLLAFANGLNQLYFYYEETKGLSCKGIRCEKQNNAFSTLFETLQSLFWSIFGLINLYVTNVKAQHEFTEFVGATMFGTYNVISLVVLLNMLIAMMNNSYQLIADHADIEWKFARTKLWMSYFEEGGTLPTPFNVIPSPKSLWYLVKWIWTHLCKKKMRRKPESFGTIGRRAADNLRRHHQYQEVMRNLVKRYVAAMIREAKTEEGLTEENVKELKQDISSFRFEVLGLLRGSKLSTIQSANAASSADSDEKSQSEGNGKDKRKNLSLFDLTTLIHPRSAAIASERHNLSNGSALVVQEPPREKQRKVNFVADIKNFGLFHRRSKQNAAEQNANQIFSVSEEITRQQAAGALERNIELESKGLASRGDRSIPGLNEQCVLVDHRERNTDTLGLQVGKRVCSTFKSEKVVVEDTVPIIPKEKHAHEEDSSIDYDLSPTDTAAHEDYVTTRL

[9] = molecular target: Genome polyprotein (dengue virus type 2, UniProt P29990); test: flavivirus cap methylation enzyme inhibition – biochemical, confirmation dose response, primary screen (AID 588689); assay type: functional
[10] = molecular target: Eukaryotic translation initiation factor 4E (Mus musculus, UniProt P63073); test: blockers of eIF4G binding by eIF4E – biochemical, TR-FRET, dose response (AID 855); assay type: functional;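 note: potency for disrupting eIF4E binding to eIF4GI seen as loss of FRET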
[11] = P. falciparum Dd2 growth inhibitors, dose response, SYBR Green, cherry-picked samples (AID 1159567); assay type: functional, cell-based
[12] = growth inhibition of PfATP4-mutant resistant parasites – NITD609-resistant line, SYBR Green, dry powder, dose response (AID 1159571); assay type: functional, cell-based;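 note: parasites synchronized at ring stage by sorbitol before testing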
[13] = growth inhibition of yeast DHODH-expressing 3D7 parasites – SYBR Green, dry powder samples, dose response (AID 1159570); assay type: functional, cell-based;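 note: parasite growth measured after 72 hours of compound exposure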
[14] = Dd2 malaria parasite growth inhibition potency – SYBR Green, dry powder samples, dose response (AID 1159566); assay type: functional, cell-based;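 note: potency for growth inhibition with lower SYBR green DNA signal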
[15] = molecular target: Cytochrome P450 2D6 (Homo sapiens, UniProt P10635);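 note: CYP2D6 member of a cytochrome P450 panel assay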
[16] = molecular target: Cytochrome P450 2C9 (Homo sapiens, UniProt P11712)
[17] = molecular target: T2, Voltage-gated N-type calcium channel alpha-1B subunit/Amyloid beta A4 precursor protein-binding family A member 1 (Homo sapiens, UniProt Q00975+Q02410); assay type: protein assay
[18] = molecular target: T2, Voltage-gated N-type calcium channel alpha-1B subunit/Amyloid beta A4 precursor protein-binding family A member 1; assay type: protein assay; remark: listed apart in the source
[19] = Trypanosoma cruzi growth suppression in host cells – NIH3T3 host cells, beta-gal luminescence, confirmation (AID 2044); assay type: functional, cell-based;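 note: intracellular parasites grown in NIH/3T3 mouse fibroblasts as host cells; luminescent beta-galactosidase reporter signal from transgenic T. cruzi replicating inside host cells; inhibitors lower the luminescence signal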
[20] = molecular target: T3, Histone-lysine N-methyltransferase NSD2 (Homo sapiens, UniProt O96028); assay type: biochemical
T3 sequence (O96028 whole entry): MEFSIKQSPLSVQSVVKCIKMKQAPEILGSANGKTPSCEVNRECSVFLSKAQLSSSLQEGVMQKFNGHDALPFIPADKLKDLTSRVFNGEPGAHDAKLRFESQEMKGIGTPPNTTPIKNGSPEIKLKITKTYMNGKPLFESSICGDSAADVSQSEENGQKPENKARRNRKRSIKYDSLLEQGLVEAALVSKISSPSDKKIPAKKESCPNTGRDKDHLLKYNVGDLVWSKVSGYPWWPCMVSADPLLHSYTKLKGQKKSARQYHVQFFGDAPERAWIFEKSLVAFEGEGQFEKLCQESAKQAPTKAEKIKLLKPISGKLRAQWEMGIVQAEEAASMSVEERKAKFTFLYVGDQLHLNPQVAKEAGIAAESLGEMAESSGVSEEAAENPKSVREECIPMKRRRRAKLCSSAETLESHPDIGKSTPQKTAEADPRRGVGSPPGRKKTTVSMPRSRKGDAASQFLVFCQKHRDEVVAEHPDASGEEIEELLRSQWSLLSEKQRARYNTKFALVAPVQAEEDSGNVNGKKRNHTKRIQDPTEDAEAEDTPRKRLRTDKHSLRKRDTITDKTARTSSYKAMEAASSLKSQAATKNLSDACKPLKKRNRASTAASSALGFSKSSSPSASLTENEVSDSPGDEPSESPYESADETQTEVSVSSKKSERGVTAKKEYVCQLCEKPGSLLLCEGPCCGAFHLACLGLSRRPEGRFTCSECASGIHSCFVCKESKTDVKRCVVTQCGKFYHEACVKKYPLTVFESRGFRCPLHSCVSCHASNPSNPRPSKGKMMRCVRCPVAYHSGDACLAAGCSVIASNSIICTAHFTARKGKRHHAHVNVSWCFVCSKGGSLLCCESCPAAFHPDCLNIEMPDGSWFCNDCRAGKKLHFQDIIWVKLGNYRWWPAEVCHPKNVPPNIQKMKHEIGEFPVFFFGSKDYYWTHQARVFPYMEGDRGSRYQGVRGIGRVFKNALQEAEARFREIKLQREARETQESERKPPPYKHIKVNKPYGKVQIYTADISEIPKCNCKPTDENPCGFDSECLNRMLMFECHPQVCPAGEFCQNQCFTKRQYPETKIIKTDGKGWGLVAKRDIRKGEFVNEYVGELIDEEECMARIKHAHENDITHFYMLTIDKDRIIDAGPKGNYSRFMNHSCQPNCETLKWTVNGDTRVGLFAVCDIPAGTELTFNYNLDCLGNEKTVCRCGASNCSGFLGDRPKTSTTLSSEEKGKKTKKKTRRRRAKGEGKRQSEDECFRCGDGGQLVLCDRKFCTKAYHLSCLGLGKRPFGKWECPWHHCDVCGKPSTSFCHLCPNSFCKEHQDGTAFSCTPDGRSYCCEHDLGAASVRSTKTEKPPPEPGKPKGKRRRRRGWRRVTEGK

[21] = NIH3T3 cell viability loss – ATP luminescence, mouse fibroblasts, counter-screen, dose response (AID 2010); assay type: functional, cell-based;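 note: cells exposed to compound for about 90 hours before reading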
[22] = cells; assay type: functional
[23] = THP-1 cell cytotoxicity, dose response, cytotoxicity control for non-replicating M. tuberculosis project (AID 489025); assay type: functional
[24] = luciferase reporter signal suppression in cells – H4 neuroglioma cells, luminescence, dose response (AID 1990); assay type: functional, cell-based
[25] = cells; assay type: functional, cell-based
[26] = cells; assay type: functional, cell-based; remark: listed apart in the source
[27] = molecular target: Nonstructural protein 1 (Influenza A virus, UniProt Q194T2); assay type: functional, Influenza A virus (A/California/07/2009(H1N1))
[28] = Luminescence Cell-Based Dose Response HTS to Identify Inhibitors of 5'UTR Stem-Loop Driven Prion Protein mRNA Translation in H4 Neuroglioblastoma Cells. [Related pubchem assays: 1827 (Project Summary), 1813 (Primary HTS)]; assay type: functional
[29] = alpha-synuclein stem-loop luciferase translation blockers – H4 neuroglioma cells, luminescence, confirmation (AID 1988); assay type: functional, cell-based

T2 sequence (Q00975 whole entry): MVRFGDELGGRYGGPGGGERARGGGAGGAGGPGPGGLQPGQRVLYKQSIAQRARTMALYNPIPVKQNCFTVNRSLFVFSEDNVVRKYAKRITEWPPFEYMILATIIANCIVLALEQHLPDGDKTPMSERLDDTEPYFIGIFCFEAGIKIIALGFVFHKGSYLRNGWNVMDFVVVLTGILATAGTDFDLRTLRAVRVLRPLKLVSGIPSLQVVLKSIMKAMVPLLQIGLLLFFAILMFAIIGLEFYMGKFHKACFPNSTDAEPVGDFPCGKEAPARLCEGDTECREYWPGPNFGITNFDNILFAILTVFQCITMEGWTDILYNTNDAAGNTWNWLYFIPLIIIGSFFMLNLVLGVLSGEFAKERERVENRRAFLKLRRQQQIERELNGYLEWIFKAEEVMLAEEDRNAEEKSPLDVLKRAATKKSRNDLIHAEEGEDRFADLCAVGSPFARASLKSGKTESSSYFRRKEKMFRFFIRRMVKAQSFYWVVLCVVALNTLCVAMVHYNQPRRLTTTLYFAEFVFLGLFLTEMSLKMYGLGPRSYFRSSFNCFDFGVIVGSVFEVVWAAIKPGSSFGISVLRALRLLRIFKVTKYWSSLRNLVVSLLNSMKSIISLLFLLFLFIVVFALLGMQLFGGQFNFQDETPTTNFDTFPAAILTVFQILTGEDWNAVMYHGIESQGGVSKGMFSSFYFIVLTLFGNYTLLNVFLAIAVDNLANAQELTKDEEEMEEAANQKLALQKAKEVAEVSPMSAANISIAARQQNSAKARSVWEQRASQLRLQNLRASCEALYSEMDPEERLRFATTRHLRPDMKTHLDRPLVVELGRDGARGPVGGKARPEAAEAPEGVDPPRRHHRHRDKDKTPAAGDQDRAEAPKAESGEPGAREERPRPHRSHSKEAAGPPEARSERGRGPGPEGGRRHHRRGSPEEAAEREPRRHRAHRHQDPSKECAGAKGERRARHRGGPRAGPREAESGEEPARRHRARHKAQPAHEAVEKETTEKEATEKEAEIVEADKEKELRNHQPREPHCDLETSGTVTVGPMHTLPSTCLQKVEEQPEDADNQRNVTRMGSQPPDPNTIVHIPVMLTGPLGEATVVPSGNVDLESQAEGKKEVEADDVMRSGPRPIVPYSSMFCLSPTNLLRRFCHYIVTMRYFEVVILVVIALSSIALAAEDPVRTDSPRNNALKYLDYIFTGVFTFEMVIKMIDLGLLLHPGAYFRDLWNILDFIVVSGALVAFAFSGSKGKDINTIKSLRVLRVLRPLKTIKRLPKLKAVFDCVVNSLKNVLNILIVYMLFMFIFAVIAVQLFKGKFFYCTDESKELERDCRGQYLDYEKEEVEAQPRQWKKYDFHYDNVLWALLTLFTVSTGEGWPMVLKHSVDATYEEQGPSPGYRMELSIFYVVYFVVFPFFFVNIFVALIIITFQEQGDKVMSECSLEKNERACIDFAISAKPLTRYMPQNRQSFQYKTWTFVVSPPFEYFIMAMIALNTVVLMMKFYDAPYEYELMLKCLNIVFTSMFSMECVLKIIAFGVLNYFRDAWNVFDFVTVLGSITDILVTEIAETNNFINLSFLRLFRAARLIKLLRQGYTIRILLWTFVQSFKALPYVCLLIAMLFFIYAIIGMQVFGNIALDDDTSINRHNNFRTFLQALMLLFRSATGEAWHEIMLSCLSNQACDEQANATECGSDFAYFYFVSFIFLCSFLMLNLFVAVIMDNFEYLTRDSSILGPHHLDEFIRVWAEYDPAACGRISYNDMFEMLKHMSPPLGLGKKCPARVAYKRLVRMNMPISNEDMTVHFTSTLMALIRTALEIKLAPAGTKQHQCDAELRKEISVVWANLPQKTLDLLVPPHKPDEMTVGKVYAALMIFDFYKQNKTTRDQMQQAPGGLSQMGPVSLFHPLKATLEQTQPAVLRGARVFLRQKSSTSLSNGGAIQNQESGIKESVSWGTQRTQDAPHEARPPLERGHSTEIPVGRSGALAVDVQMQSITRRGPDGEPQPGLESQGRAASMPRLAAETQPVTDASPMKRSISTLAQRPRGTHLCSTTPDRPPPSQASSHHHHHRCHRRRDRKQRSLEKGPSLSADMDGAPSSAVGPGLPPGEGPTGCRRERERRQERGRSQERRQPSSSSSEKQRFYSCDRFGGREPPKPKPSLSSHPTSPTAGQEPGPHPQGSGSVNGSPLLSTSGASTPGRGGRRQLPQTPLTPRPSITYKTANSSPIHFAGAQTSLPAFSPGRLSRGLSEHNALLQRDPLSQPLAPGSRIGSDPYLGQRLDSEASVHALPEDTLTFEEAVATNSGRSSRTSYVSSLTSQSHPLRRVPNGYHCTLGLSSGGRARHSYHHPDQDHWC
T2 sequence (Q02410 whole entry): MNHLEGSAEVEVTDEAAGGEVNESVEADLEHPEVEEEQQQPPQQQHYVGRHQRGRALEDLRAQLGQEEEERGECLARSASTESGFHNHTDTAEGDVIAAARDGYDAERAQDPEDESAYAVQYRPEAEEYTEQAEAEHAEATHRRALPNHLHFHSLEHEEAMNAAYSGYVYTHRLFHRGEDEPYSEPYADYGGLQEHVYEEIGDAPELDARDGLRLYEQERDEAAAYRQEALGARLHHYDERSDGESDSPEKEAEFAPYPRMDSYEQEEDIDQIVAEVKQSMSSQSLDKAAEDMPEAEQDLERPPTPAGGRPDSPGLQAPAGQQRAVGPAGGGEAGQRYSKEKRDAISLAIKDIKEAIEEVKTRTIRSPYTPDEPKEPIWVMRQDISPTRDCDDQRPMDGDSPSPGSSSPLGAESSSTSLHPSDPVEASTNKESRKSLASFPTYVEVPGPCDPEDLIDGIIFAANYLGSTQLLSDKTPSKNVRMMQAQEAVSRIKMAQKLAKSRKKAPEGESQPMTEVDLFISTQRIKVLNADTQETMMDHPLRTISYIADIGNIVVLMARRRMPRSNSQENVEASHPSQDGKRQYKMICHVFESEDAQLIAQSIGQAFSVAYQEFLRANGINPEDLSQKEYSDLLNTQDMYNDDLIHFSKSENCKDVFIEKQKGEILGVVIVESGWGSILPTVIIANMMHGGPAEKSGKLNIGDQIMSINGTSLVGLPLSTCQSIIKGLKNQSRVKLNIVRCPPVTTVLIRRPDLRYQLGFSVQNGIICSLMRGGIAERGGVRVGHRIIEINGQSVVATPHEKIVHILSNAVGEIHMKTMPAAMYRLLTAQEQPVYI
Cytochrome P450 2D6, sequence (P10635 whole entry): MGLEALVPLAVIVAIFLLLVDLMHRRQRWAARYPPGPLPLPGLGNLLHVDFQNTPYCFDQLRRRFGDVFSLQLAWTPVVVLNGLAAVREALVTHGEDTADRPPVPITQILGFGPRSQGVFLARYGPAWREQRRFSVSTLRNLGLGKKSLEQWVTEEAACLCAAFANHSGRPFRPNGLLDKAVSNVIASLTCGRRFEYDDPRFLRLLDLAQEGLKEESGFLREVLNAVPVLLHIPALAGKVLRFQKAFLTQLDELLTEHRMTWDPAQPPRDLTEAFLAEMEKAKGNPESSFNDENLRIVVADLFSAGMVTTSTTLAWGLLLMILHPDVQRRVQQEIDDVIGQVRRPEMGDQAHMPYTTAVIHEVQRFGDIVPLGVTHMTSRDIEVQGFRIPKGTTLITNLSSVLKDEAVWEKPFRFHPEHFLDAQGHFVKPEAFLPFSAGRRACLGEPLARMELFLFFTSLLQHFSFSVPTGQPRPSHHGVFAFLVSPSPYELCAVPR
Mitogen-activated protein kinase 10, sequence (P53779 whole entry): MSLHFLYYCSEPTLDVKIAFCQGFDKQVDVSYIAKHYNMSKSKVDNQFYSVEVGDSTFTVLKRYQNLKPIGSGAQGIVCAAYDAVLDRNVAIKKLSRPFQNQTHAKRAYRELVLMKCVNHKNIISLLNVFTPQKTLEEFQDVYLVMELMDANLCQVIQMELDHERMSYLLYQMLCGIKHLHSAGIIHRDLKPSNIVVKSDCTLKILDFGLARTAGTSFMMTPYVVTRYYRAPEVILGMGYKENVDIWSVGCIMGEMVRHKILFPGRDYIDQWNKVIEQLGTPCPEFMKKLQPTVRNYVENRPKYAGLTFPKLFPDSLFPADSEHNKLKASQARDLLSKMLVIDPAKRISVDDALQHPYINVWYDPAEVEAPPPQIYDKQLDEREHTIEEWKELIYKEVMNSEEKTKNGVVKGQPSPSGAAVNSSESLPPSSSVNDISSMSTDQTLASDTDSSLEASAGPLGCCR
Paired box protein Pax-8, sequence (Q06710 whole entry): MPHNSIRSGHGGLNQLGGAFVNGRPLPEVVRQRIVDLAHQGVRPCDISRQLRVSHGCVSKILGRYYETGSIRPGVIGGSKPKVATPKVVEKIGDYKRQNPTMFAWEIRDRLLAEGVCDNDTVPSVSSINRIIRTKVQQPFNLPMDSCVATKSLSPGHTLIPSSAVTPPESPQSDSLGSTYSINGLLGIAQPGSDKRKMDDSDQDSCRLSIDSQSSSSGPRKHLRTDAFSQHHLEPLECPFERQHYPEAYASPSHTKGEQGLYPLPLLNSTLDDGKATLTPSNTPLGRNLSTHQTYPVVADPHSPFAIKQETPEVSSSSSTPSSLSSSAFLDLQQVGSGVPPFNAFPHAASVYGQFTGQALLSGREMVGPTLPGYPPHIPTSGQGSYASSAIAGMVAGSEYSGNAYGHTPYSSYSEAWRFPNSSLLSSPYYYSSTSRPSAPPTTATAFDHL
Eukaryotic translation initiation factor 4E, sequence (P63073 whole entry): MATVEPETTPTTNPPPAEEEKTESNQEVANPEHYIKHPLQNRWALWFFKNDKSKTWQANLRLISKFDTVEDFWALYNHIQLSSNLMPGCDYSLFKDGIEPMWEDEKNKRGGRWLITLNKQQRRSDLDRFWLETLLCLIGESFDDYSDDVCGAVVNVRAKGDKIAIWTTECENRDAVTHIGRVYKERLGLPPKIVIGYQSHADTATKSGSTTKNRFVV
Nonstructural protein 1, sequence (Q194T2 whole entry): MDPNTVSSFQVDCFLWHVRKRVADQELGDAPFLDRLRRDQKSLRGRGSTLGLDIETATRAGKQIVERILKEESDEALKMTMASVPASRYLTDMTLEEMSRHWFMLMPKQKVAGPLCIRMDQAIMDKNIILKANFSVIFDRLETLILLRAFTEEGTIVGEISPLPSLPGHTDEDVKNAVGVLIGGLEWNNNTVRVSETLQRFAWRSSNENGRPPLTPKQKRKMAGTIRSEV

For `CCOc1cc(CNCCCN2CCOCC2)ccc1OCC(=O)Nc1cccc2ccccc12`, the IC50 [1] was 18.6 µM (active) and the CC50 [2] was > 25 µM (active).

For `C[C@@H]1CN([C@H](C)CO)C(=O)c2cc(NS(=O)(=O)c3ccc(Cl)cc3)ccc2O[C@@H](C)CCCCO[C@@H]1CN(C)CC1CCCCC1`, the AC50 [3] was 44.4 µM (active), the AC50 [4] was 9.23 µM (active) and the AC50 [5] was 18.8 µM (active). For the same molecule, the AC50 [6] was 9.37 µM (active).

For `CCOC(=O)CCCc1sc(N)nc1-c1[nH]c(O)nc1C`, the IC50 [7] was > 93.1 µM (not active).

For `O=C(CCn1cnc2ccccc2c1=O)Nc1ccc(S(=O)(=O)N2CCCCC2)cc1`, the IC50 [7] was 38.4 µM (not active).

For `Cc1ccc(S(=O)(=O)Nc2ccc3c(c2)C(=O)N([C@@H](C)CO)C[C@H](C)[C@@H](CN(C)Cc2ccc(C(F)(F)F)cc2)OCCCC[C@H](C)O3)cc1`, the AC50 [3] was 29.5 µM (active), the AC50 [4] was 7.48 µM (active) and the AC50 [5] was 46.9 µM (active). For the same molecule, the AC50 [6] was 24.1 µM (active).

For `CC(C)CN(CC(C)C)c1ccc(C=C2C(=O)NC(=S)NC2=O)cc1[N+](=O)[O-]`, the EC50 [8] was 1.88 µM (active), the IC50 [9] was 15.9 µM (active) and the IC50 [10] was 42.1 µM (inactive).

In the case of `COc1ccc(CC(=O)Nc2cc(C)ccn2)cc1`, the IC50 [7] is reported as 21.4 µM (not active).

In the case of `O=C(Nc1ccccc1F)N1CCCCN2[C@@H](CO)[C@H](c3ccc(C#Cc4cccnc4)cc3)[C@@H]2C1`, the AC50 [11] is reported as 1.1 µM (active), the AC50 [12] is reported as 0.824 µM (active) and the AC50 [13] is reported as 0.652 µM (active). For the same molecule, the AC50 [14] was 0.949 µM (active).

For `O=C(O)[C@H]1C[C@H](C(=O)O)N1`, the AC50 [15] was “inconclusive”.

For `C[C@H]1CCCCO[C@H](CN(C)C(=O)Nc2ccc(C(F)(F)F)cc2)[C@@H](C)CN([C@@H](C)CO)C(=O)c2cc(NS(=O)(=O)c3ccccc3)ccc2O1`, the AC50 [3] was 40.6 µM (active), the AC50 [4] was 6.7 µM (active) and the AC50 [5] was 45.8 µM (active).

With `CCN1CCCC1CNC(=O)C(=O)Nc1ccccc1OC` (stereo unspecified) the AC50 [15] was “inconclusive” and the AC50 [16] was “inconclusive”.

With `CCOC(=O)c1cnc(-c2ccccc2)nc1Oc1ccc(Cl)cc1` the AC50 [15] was “inconclusive”.

In the case of `COc1cc(NC(=O)c2ccccc2)ccc1NC(=O)c1cc2ccccc2o1`, the IC50 [17] is reported as > 50 µM (inactive) and the IC50 [18] is reported as > 56.8 µM (not active).

In the case of `Cc1cccn2cc(COc3ccc(-c4ccccc4)cc3)nc12`, the IC50 [1] is reported as 11.6 µM (active) and the CC50 [2] is reported as > 25 µM (active).

For `COc1ccc(N2C(=O)NC(=O)/C(=C\c3ccc([N+](=O)[O-])s3)C2=O)cc1`, the IC50 [9] was 39.1 µM (active), the EC50 [19] was 3.77 µM (active) and the AC50 [20] was > 20 µM (inactive). For the same molecule, the IC50 [17] was 10.3 µM (active), the EC50 [21] was > 60 µM (inconclusive) and the IC50 [18] was 18.2 µM (active).

With `CCC(=O)Nc1ccc(C(=O)NNC(=O)c2cc([N+](=O)[O-])cc([N+](=O)[O-])c2)cc1` the IC50 [22] was 10.3 µM (active) and the CC50 [23] was > 40 µM (active).

For `O=[N+]([O-])c1cccc(/C=N/Nc2nc(NCc3ccccc3)nc(N3CCOCC3)n2)c1O`, the EC50 [24] was 11.4 µM (active), the EC50 [25] was > 350 µM (not active) and the EC50 [26] was 13.4 µM (active). The IC50 [1] was 12.2 µM (active), the IC50 [27] was 6.2 µM (active) and the EC50 [28] was 14.1 µM (active). For the same molecule, the EC50 [29] was 15 µM (active) and the CC50 [2] was 14.7 µM (active).

For `CCN(CC)CCCNC(=O)CC1Sc2ccccc2NC1=O` (stereo unspecified), the IC50 [10] was > 64 µM (inactive).

With `Cc1cc(O)ccc1-c1cnc2ccccc2n1` the IC50 [7] was 28.1 µM (not active).

With `Clc1ccc(-n2nnnc2CN2CCOCC2)cc1` the AC50 [15] was “inconclusive” and the AC50 [16] was “inconclusive”.

From ChEMBL document CHEMBL1201862, “PubChem BioAssay data set” (2004)
